“And” between values parts separate entries of the source, which are not always exact repeats. Identical values can stand only once. “Also recorded” adds a separate entry of the source. Like-named read-outs stand apart in the source and are kept apart here.
Tests used:
[1] = biological target: T1, human TLR7 (Homo sapiens, UniProt Q9NYK1); test: activation of human TLR7 (LEC); assay type: cell-based
T1 sequence (Q9NYK1 27-1049): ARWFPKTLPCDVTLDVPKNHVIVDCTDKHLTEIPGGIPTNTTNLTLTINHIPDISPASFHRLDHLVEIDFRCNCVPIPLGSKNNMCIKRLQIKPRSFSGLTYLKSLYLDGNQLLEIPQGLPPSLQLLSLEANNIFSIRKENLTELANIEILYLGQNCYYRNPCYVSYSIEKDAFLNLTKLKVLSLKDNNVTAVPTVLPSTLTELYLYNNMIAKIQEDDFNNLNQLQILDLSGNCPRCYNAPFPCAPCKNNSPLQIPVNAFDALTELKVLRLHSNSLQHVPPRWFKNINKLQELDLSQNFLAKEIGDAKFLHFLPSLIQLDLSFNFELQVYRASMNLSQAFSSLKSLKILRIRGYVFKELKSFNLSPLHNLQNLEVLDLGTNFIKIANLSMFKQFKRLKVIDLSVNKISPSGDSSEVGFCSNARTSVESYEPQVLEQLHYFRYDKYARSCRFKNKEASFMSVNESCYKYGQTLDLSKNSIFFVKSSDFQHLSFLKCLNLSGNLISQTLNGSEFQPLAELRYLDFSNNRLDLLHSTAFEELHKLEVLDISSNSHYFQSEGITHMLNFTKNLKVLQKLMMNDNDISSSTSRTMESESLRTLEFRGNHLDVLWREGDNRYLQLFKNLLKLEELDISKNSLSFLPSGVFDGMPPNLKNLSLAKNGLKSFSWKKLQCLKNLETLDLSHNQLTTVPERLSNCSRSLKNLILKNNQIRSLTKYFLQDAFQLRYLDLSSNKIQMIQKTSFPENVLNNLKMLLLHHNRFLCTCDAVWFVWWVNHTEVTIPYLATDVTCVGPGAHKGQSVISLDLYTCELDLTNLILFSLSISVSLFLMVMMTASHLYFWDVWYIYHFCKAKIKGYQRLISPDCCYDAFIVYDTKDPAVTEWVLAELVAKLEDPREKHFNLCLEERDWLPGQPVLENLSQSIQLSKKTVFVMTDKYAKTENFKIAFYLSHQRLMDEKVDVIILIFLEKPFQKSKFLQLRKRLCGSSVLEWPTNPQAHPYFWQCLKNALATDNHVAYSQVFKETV

[2] = system: HBV; test: anti-HBV activity in vivo in AAV/HBV mice; conditions: 20 mg/kg
[3] = Phase 1 multiple dose pharmacokinetics in healthy adults; assay type: in vivo, human
Method: (§1) Following a single dose of Compound 4, intensive blood samples were collected over the first 24 hours, samples were then collected daily through Day 7, and weekly samples were collected through Day 35. Plasma concentrations of Compound 4 were evaluated using a validated liquid chromatography with tandem mass spectrometry method; the lower limit of quantification was 1 pg/mL. PK parameters were estimated using non-compartmental analysis (WinNonlin®, Certara, Princeton, NJ, USA). Descriptive statistics were used to summarize plasma concentrations and derived PK parameters of Compound 4. The impact of food on PK parameters was analyzed using geometric least square mean point estimates (mixed-effects model on log-transformed values with treatment as fixed effect and subject as a random effect).
Compound 4 was administered every week for 4 weeks in fasted condition at a dose of 1.25 mg.

[4] = Phase 1 single oral dose pharmacokinetics in healthy adults; assay type: in vivo; conditions: for AUC(0-t): read-out: AUC24 h
Method: This ongoing trial is a Phase 1 randomized, double-blind, placebo-controlled study in male and female healthy adult volunteers aged 18-55 years. All volunteers provided written, informed consent. For the SAD phase, 8-10 volunteers per cohort were randomized 6-8:2 to receive a single oral dose of either Compound 4 0.2 (N=6), 0.6 (N=6), 1.25 (N=8) or 1.8 mg (N=6) or placebo (N=2/dose group) under fasted conditions; following an ˜6-week washout period, the cohort subjects which had received 1.25 mg under fasted conditions in Cohort 4 were given the same 1.25 mg dose (N=7) under fed conditions (a standard meal consumed before dosing), in Cohort 6 (FIG. 1). Escalation of the Compound 4 dose was only permitted following a review of the safety and PK data from the previous cohort.
as §1

[5] = system: HBV-infected PHHs; test: antiviral activity of compound-stimulated human whole blood and PBMC supernatant in HBV-infected PHHs; assay type: cell-based
[6] = system: human whole blood cells; test: cytokine release in vitro in whole blood cells; assay type: cell-based
Source text: (§2) Exposure increased more than dose-proportionally at low doses. Variability in exposure was high. • In vitro plasma protein binding was between 79.6% and 94.2% in animals and humans. Volume of distribution after intravenous dosing was high. […] Main metabolic pathways were oxygenation, hydrogenation, dehydrogenation, dealkylation, acetylation, glucuronidation, and/or glutathione conjugation. • In rats, >80% of drug-related material was found in feces, 11% to 20% in bile, and <4% in urine. […] There were no effects on embryofetal development up to 1 mg/kg/dose in rats and 30 mg/kg/dose in rabbits.
LEC for Compound 4-induced cytokine release in vitro was determined to be 2 nM.

[7] = off-target liabilities in vitro; conditions: read-out: lowest IC50 for off-target liabilities
Source text: as §2

[8] = in vitro plasma protein binding; assay type: in vitro ADME; conditions: human, animals and humans
Source text: as §2

[9] = after 4 weeks of qw dosing, 1.25 mg
[10] = both sexes, human, plasma, oral, 0.2 mg, single dose 0.2 mg fasted, mean ± SD
[11] = both sexes, human, plasma, oral, 0.6 mg, single dose 0.6 mg fasted, mean ± SD
[12] = both sexes, human, plasma, oral, 1.25 mg, single dose 1.25 mg fasted, mean ± SD
[13] = both sexes, human, plasma, oral, 1.25 mg, single dose 1.25 mg fed, mean ± SD
[14] = both sexes, human, plasma, oral, 1.8 mg, single dose 1.8 mg fasted, mean ± SD

CCCCOc1nc(N)c2[nH]cc(Cc3ccc(CN4CCCC4)cc3)c2n1 [Compound 4]
lowest effective concentration (LEC) for activation of human TLR7 [1]: 70 nM
HBsAg seroconversion [2]: in all animals
HBsAg serum levels [2]: undetectable
time post-treatment reductions in HBsAg levels were sustained [2]: up to 3 weeks
excreted as unchanged drug in urine within the first 24 hours after the first and second dosing ([3]; 1.25 mg qw fasted): Less than 0.22%
terminal elimination, median value ([3]; 1.25 mg qw fasted): 244 h
mean accumulation ratio for AUC24h [3, 9]: 1.83
mean accumulation ratio for AUC72h [3, 9]: 2.27
mean accumulation ratio for AUCT [3, 9]: 2.75
Cmax ([3]; human, plasma, oral, 1.25 mg, 1.25 mg qw fasted, SD 67.2, read-out: mean Cmax after the fourth dose): 0.235 ng/mL
Cmax ([3]; human, plasma, oral, 1.25 mg, 1.25 mg qw fasted, SD 88.4, read-out: mean Cmax after the first dose): 0.186 ng/mL
AUC ([3]; human, plasma, oral, 1.25 mg, 1.25 mg qw fasted, SD 591, read-out: mean AUC24h after the fourth dose): 1.76 ng·h/mL
AUC ([3]; human, plasma, oral, 1.25 mg, 1.25 mg qw fasted, SD 874, read-out: mean AUC24h after the first dose): 1.21 ng·h/mL
concentration at 21 days ([3]; human, plasma, oral, 1.25 mg qw fasted, read-out: mean Ctrough before the fourth dose): 0.0408 ± 0.0489 ng/mL
concentration at 7 days ([3]; human, plasma, oral, 1.25 mg qw fasted, read-out: mean Ctrough before the second dose): 0.00717 ± 0.0032 ng/mL
least square mean ratio point estimate of AUC48h, fed vs fasted ([4]; 1.25 mg, 90% CI 65.89-105.71): 83.45
Predose Level ([4]; before 1.25 mg fed dose, on average 41 days after 1.25 mg fasted dose, mean ± SD): 1.85 pg/mL and 1.85 ± 0.597 pg/mL
Cmax [4, 10]: 0.0344 ± 0.0179 ng/mL
AUC(0-t) [4, 10]: 0.19 ± 0.0972 ng·h/mL
Tmax ([4]; both sexes, human, plasma, oral, 0.2 mg, single dose 0.2 mg fasted, median (range), read-out: tmax): 30 min
Cmax [4, 11]: 0.109 ± 0.0281 ng/mL
AUC(0-t) [4, 11]: 0.594 ± 0.21 ng·h/mL
Tmax ([4]; both sexes, human, plasma, oral, 0.6 mg, single dose 0.6 mg fasted, median (range), read-out: tmax): 30 min
Cmax [4, 12]: 0.143 ± 0.0659 ng/mL
AUC(0-t) [4, 12]: 0.815 ± 0.251 ng·h/mL
Tmax ([4]; both sexes, human, plasma, oral, 1.25 mg, single dose 1.25 mg fasted, median (range), read-out: tmax): 45 min
Cmax [4, 13]: 0.152 ± 0.0764 ng/mL
AUC(0-t) [4, 13]: 0.659 ± 0.194 ng·h/mL
Tmax ([4]; both sexes, human, plasma, oral, 1.25 mg, single dose 1.25 mg fed, median (range), read-out: tmax): 30 min
Cmax [4, 14]: 0.309 ± 0.136 ng/mL
AUC(0-t) [4, 14]: 1.37 ng·h/mL
Tmax ([4]; both sexes, human, plasma, oral, 1.8 mg, single dose 1.8 mg fasted, median (range), read-out: tmax): 30 min
concentration at 41 days ([4]; both sexes, human, plasma, oral, before 1.25 mg fed dose, on average 41 days after 1.25 mg fasted dose, mean ± SD, read-out: Predose Level): 0.00185 ng/mL
CL renal ([4]; both sexes, human, plasma, oral, single dose 1.25 mg fasted, range 1.86-3.81, read-out: mean renal clearance (converted)): 42.8 mL/min
Tmax ([4]; both sexes, human, plasma, po, single oral doses 0.2 to 1.8 mg, read-out: tmax, range over doses): 30 to 60 min
half-life ([4]; both sexes, human, plasma, single oral doses 0.2 to 1.8 mg, read-out: median t1/2 term, range over doses): 5.25 to 36.2 days
t1/2term ([4]; single dose 0.2 mg fasted, median (range)): 150 (126-212) h
CL/F ([4]; single dose 0.2 mg fasted, n = 1): 149 L/h
t1/2term ([4]; single dose 0.6 mg fasted, median (range)): 284 (104-479) h
CL/F ([4]; single dose 0.6 mg fasted, n = 1): 244 L/h
excreted as unchanged drug in urine within the first 24 hours ([4]; single dose 1.25 mg fasted): less than 0.2%
t1/2term ([4]; single dose 1.25 mg fasted, median (range)): 448 (372-502) h
CL/F ([4]; single dose 1.25 mg fasted, n = 3): 254 L/h
t1/2term ([4]; single dose 1.25 mg fed, median (range)): 591 (448-868) h
t1/2term ([4]; single dose 1.8 mg fasted, median (range)): 194 (185-205) h
dose proportionality of exposure ([4]; single oral doses 0.2 to 1.8 mg fasted): increased in proportion with the dose; also recorded: dose-proportional pharmacokinetics
anti-HBV activity target concentration in vitro [5]: 3.3 nM
maximum decline of HBV DNA compared to DMSO controls ([5]; 3.3 nM): 1.5 log 10
maximum decline of HBV RNA compared to DMSO controls ([5]; 3.3 nM): 1.1 log 10
maximum decline of HBeAg compared to DMSO controls ([5]; 3.3 nM): 1.3 log 10
maximum decline of HBsAg compared to DMSO controls ([5]; 3.3 nM): 0.4 log 10
overall LEC for cytokine release in vitro [6]: 2 nM
potency on human versus monkey whole blood cells ([6]; most cytokines and chemokines tested): more potent on human whole blood cells compared to monkey whole blood cells
IC50 [7]: ≥ 1.97 µM
fraction unbound [8]: 0.058 to 0.204

Source: patent publication US12263172B2, “Toll-like receptor agonists for use in the treatment of hepatitis b” (priority 2019, dated 2025)
